Like-named read-outs stand apart in the source and are kept apart here.
Columns and labels:
[1] = system: human multiple myeloma cell line, OPM-2; assay: Cell viability assay (OPM-2 10 FBS), CellTiter-Glo; type: cell-based
Summary of the method: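 Steps: plate cells at 3000/well in 10% FBS growth medium, add serially diluted compound, incubate 16 h at 37 °C with 5% CO2, add detection reagent and read luminescence after 25 min. A 4-parameter logistic model gives IC50.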

[2] = molecular target: recombinant human Mcl-1 (residues 171-327) / Bim interaction (Homo sapiens (Human), UniProt Q07820); assay: biochemical; type: binding; settings: read-out: Mcl-1 HTRF IC50
[3] = 0.1 nM Mcl-1(171-327), 0.05 nM biotin-Bim (51-76)
[4] = Homo sapiens, OPM-2, 16 h, read-out: OPM-2 10% FBS IC50 IP, OPM-2 cells, 10% FBS, 16 h, CellTiter-Glo
[5] = TR-FRET, Mcl-1(171-327) / biotin-Bim (51-76)

recombinant human Mcl-1 (residues 171-327) / Bim interaction, sequence (Q07820 171-327): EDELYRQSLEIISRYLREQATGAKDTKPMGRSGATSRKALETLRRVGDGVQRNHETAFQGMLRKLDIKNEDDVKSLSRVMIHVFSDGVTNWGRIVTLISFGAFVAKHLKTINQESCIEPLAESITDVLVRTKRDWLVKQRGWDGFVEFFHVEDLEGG

Row | Compound | IC50 ([1]; Homo sapiens, OPM-2, 16 h, read-out: OPM-2 10% FBS IC50 IP, OPM-2 cells, 10% FBS, 16 h incubation) [nM] | IC50 [2, 3] [nM] | IC50 [1, 4] [nM] | IC50 [2, 5] [nM] | IC50 ([1]; read-out: OPM-2 10% FBS IC50 IP, OPM-2 cells, 10% FBS, 16 h incubation) [nM]
1 | CCO[C@]1(CN2CCN(C3COC3)CC2)/C=C/C[C@H](C)[C@@H](COC)S(=O)(=O)NC(=O)c2ccc3c(c2)N(C[C@@H]2CC[C@H]21)C[C@@]1(CCCc2cc(Cl)ccc21)CO3 [Example 175] | 64 | 0.069 |  |  | 
2 | C=CC[C@]1(OC)/C=C/C[C@H](C)[C@@H](C)S(=O)(=O)NC(=O)c2ccc3c(c2)N(C[C@@H]2CC[C@H]21)C[C@@]1(CCCc2cc(Cl)ccc21)CO3 [Example 100397, (1S,3′R,6′R,7′S,8′E,11′S,12′R)-6-chloro-7′-methoxy-11′,12′-dimethyl-7′-(2-propen-1-yl)-3,4-dihydro-2H,15′H-spiro[naphthalene-1,22′-[20]oxa[13]thia[1,14]diazatetracyclo [14.7.2.0~3,6~.0~19,24~]pentacosa[8,16,18,24]tetraen]-15′-one 13′,13′-dioxide] |  |  | 404 | 0.198 | 
3 | C[C@@H]1[C@@H](C)CCC[C@](O)(COCCN(C)C)[C@@H]2CC[C@H]2CN2C[C@@]3(CCCc4cc(Cl)ccc43)COc3ccc(cc32)C(=O)NS1(=O)=O [Example 100195, (1S,3′R,6′R,7′R,11′S,12′R)-6-chloro-7′-((2-(dimethylamino)ethoxy)methyl)-7′-hydroxy-11′,12′-dimethyl-3,4-dihydro-2H,15′H-spiro[naphthalene-1,22′-[20]oxa[13]thia[1,14]diazatetracyclo [14.7.2.0~3,6~.0~19,24~]pentacosa[16,18,24]trien]-15′-one 13′,13′-dioxide] |  |  | 625 | 1.07 | 
4 | (1S,3′R,6′R,7′R,8′E,11′S,12′R)-6-chloro-12′-(2-(dimethylamino)ethyl)-7′-methoxy-11′-methyl-7′-((9aR)-octahydro-2H-pyrido[1,2-a]pyrazin-2-ylmethyl)-3,4-dihydro-2H,15′H-spiro[naphthalene-1,22′-[20]oxa[13]thia[1,14]diazatetracyclo[14.7.2.0-3,6˜.0˜19,24˜]pentacosa[8,16,18,24]tetraen]-15′-one 13′,13′-dioxide [Example 367] |  | 0.201 |  |  | 273
5 | CO[C@@]1(CCN2CCCCC2)/C=C/C[C@H](C)[C@@H](C)S(=O)(=O)NC(=O)c2ccc3c(c2)N(C[C@@H]2CC[C@H]21)C[C@@]1(CCCc2cc(Cl)ccc21)CO3 [Example 100428, (1S,3′R,6′R,7′S,8′E,11′S,12′R)-6-chloro-7′-methoxy-11′,12′-dimethyl-7′-(2-(1-piperidinyl)ethyl)-3,4-dihydro-2H,15′H-spiro[naphthalene-1,22′-[20]oxa[13]thia[1,14]diazatetracyclo [14.7.2.0~3,6~.0~19,24~]pentacosa[8,16,18,24]tetraen]-15′-one 13′,13′-dioxide] |  |  | 218 | 0.21 | 
6 | C[C@@H]1[C@@H](C)CCC[C@@](O)(Cc2ncccn2)[C@@H]2CC[C@H]2CN2C[C@@]3(CCCc4cc(Cl)ccc43)COc3ccc(cc32)C(=O)NS1(=O)=O [Example 100146, (1S,3′R,6′R,7′R,11′S,12′R)-6-chloro-7′-hydroxy-11′,12′-dimethyl-7′-(2-pyrimidinylmethyl)-3,4-dihydro-2H,15′H-spiro[naphthalene-1,22′-[20]oxa[13]thia[1,14]diazatetracyclo [14.7.2.0~3,6~.0~19,24~]pentacosa[16,18,24]trien]-15′-one 13′,13′-dioxide] |  |  | 347 | 0.515 | 
7 | COCC#C[C@@]1(OC)/C=C/C[C@H](C)[C@@H](C)S(=O)(=O)NC(=O)c2ccc3c(c2)N(C[C@@H]2CC[C@H]21)C[C@@]1(CCCc2cc(Cl)ccc21)CO3 [Example 100343, (1S,3′R,6′R,7′R,8′E,11′S,12′R)-6-chloro-7′-methoxy-7′-(3-methoxy-1-propyn-1-yl)-11′,12′-dimethyl-3,4-dihydro-2H,15′H-spiro[naphthalene-1,22′-[20]oxa[13]thia[1,14]diazatetracyclo [14.7.2.0~3,6~.0~19,24~]pentacosa[8,16,18,24]tetraen]-15′-one 13′,13′-dioxide] |  |  | 617 | 2.51 | 

— patent publication US10821115B2, “Compounds that inhibit Mcl-1 protein” (priority 2017, dated 2020)
